As usually defined, the IC50 is the concentration that gives 50% inhibition.

Consider six molecules from US20210222168A1, “METHODS FOR REACTIVATING GENES ON THE INACTIVE X CHROMOSOME” (THE GENERAL HOSPITAL CORPORATION, priority 2017, published 2021).

For series [1] the following is noted: cited from earlier work.
Series [2] has as its system X-linked gene expression relative to autosomal expression. Description: Aza three pulse treatment, transcriptomic analysis of brain and liver. Format: in vivo, mouse. The source says: All libraries were sequenced with Illumina HiSeq, generating 28-54 millions paired-end 50 nucleotide reads per sample. RNA-seq reads were aligned allele-specifically to 129S1/SvJm (mus) and CAST/Eih (cas) genome using TopHat2 (Kim D, et al. (2013) TopHat2: Accurate alignment of transcriptomes in the presence of insertions, deletions and gene fusions. Genome Biol 14:R36). After removal of PCR duplicates, all unique reads mapped to the exons of each gene were quantified by Homer (Heinz S, et al. (2010) Simple combinations of lineage-determining transcription factors prime cis-regulatory elements required for macrophage and B cell identities. Mol Cell 38:576-589). […] To compare the fold change of autosomal and X-linked genes, only genes with FPKM≥1 were considered (Yang L, Kirby J E, Sunwoo H, Lee J T (2016) Female mice lacking Xist RNA show partial dosage compensation and survive to term. Genes Dev 30:1747-1760). […] For allele-specific analysis, we defined % mus as the percentage of mus-specific exonic reads in all allele-specific (mus-specific+cas-specific) exonic reads of each transcript. For classification of X-linked genes, we defined expressed genes as genes having non-zero FPKM in all samples. Allele-assessable genes were defined as active genes that have more than 12 allele-specific reads in all samples (Pinter S F and Colognori D (2015) Allelic imbalance is a prevalent and tissue-specific feature of the mouse transcriptome. Genetics 200:537-549). It has been described that a small fraction of genes overlap with incorrectly annotated SNPs and produce unexpected allelic skewing (Pinter S F and Colognori D (2015) Allelic imbalance is a prevalent and tissue-specific feature of the mouse transcriptome. Genetics 200:537-549; Calabrese J M et al. (2012) Site-specific silencing of regulatory elements as a mechanism of X inactivation. Cell 151:951-963). These genes were identified by analyzing a published RNA-seq dataset of tail-tip fibroblasts (TTF) from pure Mus castaneous background. […]

For series [3], the system named is Xi-Mecp2-Luc MEF cells. As to conditions: stated in parentheses only; target and source not given; cited from earlier work.
Series [4] has as its system Mecp2:Luciferase knock-in reporter on the Xi. Description: Luciferase assay in Xi-Mecp2-Luc MEFs. Format: cell-based, mouse. To be noted: for Xi-Mecp2 upregulation / reactivation in combination with the Xist ASO: 20 nM Xist ASO + small molecule inhibitor (EPZ6438 1 uM, VX680 1 uM, Aza 0.5 uM); for upregulation of MECP2 by other Xist gapmers: 20 nM ASO + 0.5 μM Aza (FIG. 7B-D). Here is the method: (§1) Mecp2-Luc fibroblast cell lines were a generous gift from Dr. Bedalov. The clonal hybrid (cast/mus) cell line (EY.T4) was previously developed in the lab (Yildirim E et al. (2011) X-chromosome hyperactivation in mammals via nonlinear relationships between chromatin states and transcription. Nat Struct Mol Biol 19:56-61). Passage number was kept below 25, no further verification of cell line identity was performed. They were maintained in DMEM-glutamax (Gibco), supplemented with fetal bovine serum (FBS, 10%), non-essential amino acids (1×, Gibco), HEPES buffer (25 mM, Gibco), penicillin/streptomycin (1×, Gibco) and 2-Mercaptoethanol (Sigma). Transfection was performed with 20 nM ASO assisted by Lipofectamine LTX with Plus reagent (Thermo Fisher).
Xa-Mecp2-Luc clone cell line was used in parallel for providing a scaling magnitude for normalizing Xi-driven luciferase signals, Cells were grown in a 12 well plate, trypsinized, counted, washed with PBS and dispensed in 20 ul of 1× cell culture lysis reagent (Promega). The mixture was vortexed and incubated for 5 min and then transferred to a zebra 96 well plate. The plate was read using a Perkin Elmer MicroBeta2 LumiJET that automatically adds 100 μl of Luciferase Assay Reagent (Promega) 2 sec before measuring the produced light for 10 sec. The corrected counts per second where divided by the number of cells for generating a luciferase-reactivation score per cell. For the initiating screen ASOs were used at 20 nM (transfected with lipofectamine) in combination with 0.5 uM Aza for 3 days. The reverse screen used 20 nM Xist ASO (transfected with lipofectamine) in combination with the small molecule inhibitors at different concentrations (see Table S-II) for 3 days.
We asked whether an ASO could also be developed for Xi-reactivation. We screened a small ASO library against various targets of potential interest, including Xist RNA and an antisense transcript to Mecp2 (Mecp2-as) (FIG. 1A, FIG. 6, Table S-I). In designing the ASOs, we chose phosporothioate backbone and locked nucleic acid (LNA™) chemistry (Wahlestedt C et al. Potent and nontoxic antisense oligonucleotides containing locked nucleic acids. Proc Natl Acad Sci USA. 2000; 97:5633-5638) for its in vivo and in vitro stability, and increased affinity and selectivity for RNA targets. All were designed as gapmers, with unmodified deoxyribonucleosides in the center flanked by 5′ and 3′ terminal locked nucleosides, to direct RNAse-H-mediated cleavage of the target transcript. […] The luciferase reporter provides a highly sensitive enzymatic detection method with a large dynamic range. […] Epigenetics Chromatin. […] Science. 2015; 349: aab2276-12), we examined the efficacy of each ASO in the presence of 0.5 uM decitabine (“Aza”; 5-aza-2′-deoxycytidine) for three days.

Series [5] has as its system Xi-Mecp2-Luc MEF cells. The series is classed as cell-based. The procedure:
as §1
Imaging was done with a Nikon Eclipse TE2000-E equipped with a HamamatsuCCD camera. Image analysis was done with OpenLAB software (Agilent).

Series [6] is described as follows: Aza three pulse treatment, long-term health, lifespan and body weight. The procedure:
Aza was administered to the Xist2lox, Nestin-Cre F2 generation, by IP injection at 5 weeks old. Three injections 100 ul per 10 g of 0.033 mg/ml in sterile saline (or just sterile saline as control) were given over the course of a week (each injection separated by 2 days). Both Xist2lox/2lox and Xist Δ/Δ were injected and were randomly assigned to the treatment group. No specific randomization protocol was followed. RNA from the brain and liver were harvested (as described before) at 7 weeks of age (2 weeks after the first injection).

Entries after “also recorded” stand apart in the source; their conditions may differ. Bounds are passed on as bounds.

As for `Nc1ncn([C@H]2C[C@H](O)[C@@H](CO)O2)c(=O)n1` [Aza, 5-aza-2′-deoxycytidine], in series [1] (cited: Chabot et al., rabbits and dogs), the blood-brain-barrier crossing entry is on record as “can cross the blood-brain-barrier”. In series [1] (plasma), the “half-life (t1/2) in plasma” value is on record as less than 1 h. For the same molecule, the “X- and autosomal gene expression in liver” value in series [2] (three IP Aza pulses over one week at 5 weeks of age, harvested two weeks later, liver (Xist not deleted)) is “remained balanced”. Moreover, the “X-linked gene expression relative to autosomal expression in XistΔ/Δ brain” value in series [2] (three IP Aza pulses over one week combined with Xist deletion, brain two weeks later) is recorded as “highly significant positive changes in X-linked gene expression relative to autosomal expression; also recorded: X-upregulation evident in the brain two weeks later; also recorded: sufficient to induce Xi reactivation after two weeks in the brain”. For the same molecule, the “X-to-autosomal gene expression in Xist2lox/2lox (wild-type) brain” value in series [2] (three IP Aza pulses over one week, brain two weeks later) is “did not result in X-to-autosomal gene imbalance”. The IC50 with Xi-Mecp2-Luc MEF cells [3] is 500 nM. Besides, the “Mecp2:luciferase upregulation, single treatments compared with the combination” value in series [4] (5 days) is given as “remained significantly lower”. Further, the “cell death at higher Aza concentrations” value in the series on Xi-Mecp2-Luc MEF cells [5] (1.0, 2.5 uM Aza, 3-day treatment) is on record as “increased cell death”. In addition, the “tolerable Aza concentrations in cell culture” value in the series on Xi-Mecp2-Luc MEF cells [5] (FIG. 2C) turned out to be 0.5 µM. The survival result in series [6] (after short-term Aza pulse treatment) was “all mice advanced to 1-2 year of age”. Besides, in series [6] (mouse, in vivo), the “body weight, Aza versus saline treatment groups” value was “did not introduce significant differences”; the health and lifespan entry is “no measurable differences in health and lifespan”.

In the case of `CCN(c1cc(-c2ccc(CN3CCOCC3)cc2)cc(C(=O)NCc2c(C)cc(C)[nH]c2=O)c1C)C1CCOCC1` [EPZ6438, N-((4,6-dimethyl-2-oxo-1,2-dihydropyridin-3-yl)methyl)-5-(ethyl(tetrahyd-ro-2H-pyran-4-yl)amino)-4-methyl-4′-(morpholinomethyl)-[1,1′-biphenyl]-3-carboxamide], in series [4] (3 days), the “Xi-Mecp2 upregulation / reactivation in combination with the Xist ASO” value is reported as “varying degrees of upregulation; also recorded: larger degree of reactivation than previously seen with any other compound”.

Turning to `Cc1cc(Nc2cc(N3CCN(C)CC3)nc(Sc3ccc(NC(=O)C4CC4)cc3)n2)n[nH]1` [VX680], in series [4] (3 days), the “Xi-Mecp2 upregulation / reactivation in combination with the Xist ASO” value is reported as “varying degrees of upregulation; also recorded: larger degree of reactivation than previously seen with any other compound”.

As to “Scr ASO: negative control ASO, scrambled sequence; AACACGTCTATACGC, SEQ ID NO: 1 (all phosphorothioate, sugars by position and methylation of C not given here; LNA gapmer with DNA center and LNA wings)”, the “luminescent counts per second (LCPS) / Mecp2:luciferase reactivation, single treatment” value in series [4] (3 days, ASO 20 nM or Aza 0.5 uM alone) was “neither the control Scr ASO (20 nM) nor Xist ASO (20 nM gapmer 1) resulted in measurable luminescent counts per second”.

Turning to “Xist ASO 2: LNA gapmer ASO targeting Xist exon 1; AGTAGCTCGGTGGAT, SEQ ID NO: 3 (all phosphorothioate, sugars by position and methylation of C not given here; LNA gapmer with DNA center and LNA wings)”, the “upregulation of MECP2 by other Xist gapmers” value in series [4] was “found to also upregulate MECP2”.

Take “Xist ASO 3: LNA gapmer ASO targeting Xist exon 1; TGAGTCTTGAGGAGAA, SEQ ID NO: 4 (all phosphorothioate, sugars by position and methylation of C not given here; LNA gapmer with DNA center and LNA wings)”: in series [4], the “upregulation of MECP2 by other Xist gapmers” value is on record as “found to also upregulate MECP2”.
